{"source": "patent US8563241B2", "about": "(Institut de Cardiologie de Montreal, priority 2009, dated 2013)", "key": {"[1]": {"test": "Retrospective study of INR fluctuations outside the target therapeutic INR range in 1,615 patients of the MHI warfarin clinic (Rosendaal method)", "assay_type": "in vivo, human", "conditions": "post-stabilization follow up period (first six months and hospitalization periods excluded)", "method": "(§1) The study was focused on the post INR-stabilization period by excluding the first six months of therapy, and further excluded hospitalization periods. […] INR fluctuations were measured according to the Rosendaal method based on linear interpolation."}, "[2]": {"test": "Pilot genetic study of INR fluctuations in 324 post INR-stabilization atrial fibrillation patients by CYP4F2 rs2108622 and NR1I2 rs6772976 genotype", "assay_type": "in vivo, human", "method": "as §1\nFor the pilot genetic study, 324 patients with atrial fibrillation were selected, for whom therapy was started prior to Aug. 1, 2005, with a follow up of 36 months or more and with at most 70 years of age. […] Genotyping was conducted using the Sequenom technology."}}}
{"smiles": "CC(=O)CC(c1ccccc1)c1c(O)c2ccccc2oc1=O", "note": "(stereo not shown) [warfarin]", "values": [{"measurement": "time above target therapeutic INR range", "setting": "[1]", "value": 17.2, "unit": "%"}, {"measurement": "average % of the time above the patient-specific target therapeutic INR range", "setting": "[2]; patients with CYP4F2 rs2108622 CC genotype", "value": 17.1, "unit": "%"}, {"measurement": "average % of the time above the patient-specific target therapeutic INR range", "setting": "[2]; patients with CYP4F2 rs2108622 CT genotype", "value": 15.9, "unit": "%"}, {"measurement": "average % of the time above the patient-specific target therapeutic INR range", "setting": "[2]; patients with CYP4F2 rs2108622 TT genotype", "value": 29.6, "unit": "%"}]}
